Reference: patent US12247045B2, “MAP4K4 inhibitors” (Imperial College Innovations Limited, priority 2018, dated 2025)
Like-named read-outs stand apart in the source and are kept apart here.

Assays:
Format in all cases: biochemical
[1] = target: T1, human MAP4K4 kinase domain (Homo sapiens, UniProt O95819); test: MAP4K4 kinase activity, CisBio HTRF Transcreener ADP assay
T1 construct: 0.5 nM human MAP4K4 kinase domain (Invitrogen); purchased Invitrogen
Source text: Compounds of the present invention were screened for their inhibitory activity against MAP4K4, versus selected off-target hits found with early members of this chemical series. MAP4K4 kinase activity was monitored using the CisBio HTRF Transcreener ADP assay, a competitive immunoassay with a reproducible Z′>0.6. In the detection step, endogenous ADP and d2-labeled ADP compete for binding an anti-ADP monoclonal antibody labelled with Eu^3+ cryptate. A ratiometric fluorescent read-out is used at 665 and 620 nm. Reactions were performed in the presence of 1% DMSO with ATP added at Km (10 μM), 0.5 nM human MAP4K4 kinase domain (Invitrogen), 1 μM biotin-myelin basic protein as substrate (Invitrogen), and extension of reaction time to 2 h. Assays were run in Greiner low volume plates with a final reaction volume of 10 μl. The MAP4K4 inhibition data are provided in Table 41 below for selected compounds of the present invention. The data has been categorised based on the IC50 value of the compound as “A”, “B” or “C”. IC50: A≤100 nM; 100 nM<B≤1 μM; 1 μM<C; nd=not determined.

TNIK/MAP4K7 = TNIK/MAP4K7 (Homo sapiens, UniProt Q9UKE5); test: Kinase selectivity panel, TNIK/MAP4K7; conditions: read-out: pIC50 TNIK/MAP4K7 (converted)
Source text: (§1) The data in Table 42 also provides the fold selectivity of the two compounds in favour of MAP4K4 over the tested kinase. The fold selectivity is indicated in parenthesis.

GCK/MAP4K2 = target: T2, GCK/MAP4K2 (Homo sapiens, UniProt Q12851); test: Kinase selectivity panel, GCK/MAP4K2; conditions: for fold selectivity MAP4K4 over GCK/MAP4K2: in favour of MAP4K4; for IC50: read-out: pIC50 GCK/MAP4K2 (converted)
T2 sequence (Q12851 1-820): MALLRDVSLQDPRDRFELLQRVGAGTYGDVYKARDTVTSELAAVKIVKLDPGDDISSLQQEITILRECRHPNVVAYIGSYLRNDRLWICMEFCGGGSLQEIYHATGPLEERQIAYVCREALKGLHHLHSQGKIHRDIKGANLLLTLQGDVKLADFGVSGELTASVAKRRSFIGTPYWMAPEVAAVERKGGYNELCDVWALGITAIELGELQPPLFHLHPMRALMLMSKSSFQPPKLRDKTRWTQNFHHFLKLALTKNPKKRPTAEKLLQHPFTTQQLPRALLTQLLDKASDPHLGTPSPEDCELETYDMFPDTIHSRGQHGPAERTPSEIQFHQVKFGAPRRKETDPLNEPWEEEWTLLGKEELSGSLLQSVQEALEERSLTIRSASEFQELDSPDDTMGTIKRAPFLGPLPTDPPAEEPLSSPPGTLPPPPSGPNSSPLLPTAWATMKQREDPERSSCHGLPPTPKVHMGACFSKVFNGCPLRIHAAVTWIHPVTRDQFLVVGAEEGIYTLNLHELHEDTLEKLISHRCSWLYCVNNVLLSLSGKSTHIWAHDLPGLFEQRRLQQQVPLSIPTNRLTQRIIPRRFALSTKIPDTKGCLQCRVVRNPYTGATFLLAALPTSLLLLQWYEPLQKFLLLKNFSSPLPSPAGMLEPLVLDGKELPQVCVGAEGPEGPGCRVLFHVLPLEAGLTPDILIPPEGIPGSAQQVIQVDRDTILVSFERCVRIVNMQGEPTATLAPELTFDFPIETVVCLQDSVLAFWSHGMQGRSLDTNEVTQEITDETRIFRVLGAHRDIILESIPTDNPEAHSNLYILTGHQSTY
Source text: as §1

GLK/MAP4K3 = target: T3, GLK/MAP4K3 (Homo sapiens, UniProt Q8IVH8); test: Kinase selectivity panel, GLK/MAP4K3; conditions: for fold selectivity MAP4K4 over GLK/MAP4K3: in favour of MAP4K4; for IC50: read-out: pIC50 GLK/MAP4K3 (converted)
T3 sequence (Q8IVH8 1-894): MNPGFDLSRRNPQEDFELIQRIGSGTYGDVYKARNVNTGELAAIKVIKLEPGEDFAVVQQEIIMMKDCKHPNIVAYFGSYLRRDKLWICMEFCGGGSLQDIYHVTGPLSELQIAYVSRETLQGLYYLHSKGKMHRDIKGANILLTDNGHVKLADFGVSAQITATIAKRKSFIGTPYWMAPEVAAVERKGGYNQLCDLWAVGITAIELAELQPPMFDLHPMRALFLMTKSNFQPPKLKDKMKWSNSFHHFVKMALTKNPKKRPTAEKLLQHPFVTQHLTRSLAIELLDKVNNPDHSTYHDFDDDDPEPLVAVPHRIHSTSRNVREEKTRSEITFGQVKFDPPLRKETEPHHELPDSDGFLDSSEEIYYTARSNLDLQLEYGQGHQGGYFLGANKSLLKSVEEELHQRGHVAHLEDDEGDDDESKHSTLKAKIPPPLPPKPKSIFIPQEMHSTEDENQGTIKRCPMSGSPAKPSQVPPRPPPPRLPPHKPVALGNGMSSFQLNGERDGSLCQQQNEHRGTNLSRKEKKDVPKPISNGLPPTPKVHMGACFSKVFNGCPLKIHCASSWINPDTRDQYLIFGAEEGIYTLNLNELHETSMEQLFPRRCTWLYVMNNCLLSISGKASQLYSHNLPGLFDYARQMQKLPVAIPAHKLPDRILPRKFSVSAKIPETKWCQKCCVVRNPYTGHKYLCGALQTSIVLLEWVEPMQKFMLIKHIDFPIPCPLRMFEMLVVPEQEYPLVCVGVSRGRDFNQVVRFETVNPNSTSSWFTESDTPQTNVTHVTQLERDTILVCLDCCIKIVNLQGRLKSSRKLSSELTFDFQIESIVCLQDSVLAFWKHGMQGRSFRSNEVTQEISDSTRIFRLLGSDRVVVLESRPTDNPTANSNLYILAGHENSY
Source text: as §1

KHS/MAP4K5 = KHS/MAP4K5 (Homo sapiens, UniProt Q9Y4K4); test: Kinase selectivity panel, KHS/MAP4K5; conditions: for fold selectivity MAP4K4 over KHS/MAP4K5: in favour of MAP4K4; for IC50: read-out: pIC50 KHS/MAP4K5 (converted)
Sequence of KHS/MAP4K5 (Q9Y4K4 whole entry): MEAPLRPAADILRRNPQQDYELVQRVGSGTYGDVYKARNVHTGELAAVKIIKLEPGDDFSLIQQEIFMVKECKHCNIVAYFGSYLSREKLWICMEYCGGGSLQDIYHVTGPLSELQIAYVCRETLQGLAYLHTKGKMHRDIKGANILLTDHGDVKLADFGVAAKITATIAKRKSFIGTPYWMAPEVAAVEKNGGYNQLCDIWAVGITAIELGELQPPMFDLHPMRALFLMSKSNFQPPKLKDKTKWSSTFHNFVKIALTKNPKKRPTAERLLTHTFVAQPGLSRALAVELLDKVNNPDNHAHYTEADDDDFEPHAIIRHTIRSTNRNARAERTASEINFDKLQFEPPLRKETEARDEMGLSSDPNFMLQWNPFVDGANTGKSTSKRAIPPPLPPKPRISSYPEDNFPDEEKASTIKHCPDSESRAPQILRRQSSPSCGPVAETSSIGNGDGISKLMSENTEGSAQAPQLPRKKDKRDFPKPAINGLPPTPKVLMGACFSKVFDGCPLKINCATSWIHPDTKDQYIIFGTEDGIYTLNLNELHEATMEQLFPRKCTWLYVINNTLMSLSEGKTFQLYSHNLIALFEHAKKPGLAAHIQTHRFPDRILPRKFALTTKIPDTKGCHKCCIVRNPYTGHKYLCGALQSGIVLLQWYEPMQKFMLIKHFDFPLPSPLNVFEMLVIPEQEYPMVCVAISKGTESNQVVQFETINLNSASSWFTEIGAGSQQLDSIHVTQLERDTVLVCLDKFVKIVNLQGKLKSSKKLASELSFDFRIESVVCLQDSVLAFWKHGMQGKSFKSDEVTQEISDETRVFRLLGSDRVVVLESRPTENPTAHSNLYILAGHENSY
Source text: as §1

ABL1 = ABL1 (Homo sapiens, UniProt P00519); test: Kinase selectivity panel, ABL1; conditions: for fold selectivity MAP4K4 over ABL1: in favour of MAP4K4; for IC50: read-out: pIC50 ABL1 (converted)
Sequence of ABL1 (P00519 whole entry, species assumed): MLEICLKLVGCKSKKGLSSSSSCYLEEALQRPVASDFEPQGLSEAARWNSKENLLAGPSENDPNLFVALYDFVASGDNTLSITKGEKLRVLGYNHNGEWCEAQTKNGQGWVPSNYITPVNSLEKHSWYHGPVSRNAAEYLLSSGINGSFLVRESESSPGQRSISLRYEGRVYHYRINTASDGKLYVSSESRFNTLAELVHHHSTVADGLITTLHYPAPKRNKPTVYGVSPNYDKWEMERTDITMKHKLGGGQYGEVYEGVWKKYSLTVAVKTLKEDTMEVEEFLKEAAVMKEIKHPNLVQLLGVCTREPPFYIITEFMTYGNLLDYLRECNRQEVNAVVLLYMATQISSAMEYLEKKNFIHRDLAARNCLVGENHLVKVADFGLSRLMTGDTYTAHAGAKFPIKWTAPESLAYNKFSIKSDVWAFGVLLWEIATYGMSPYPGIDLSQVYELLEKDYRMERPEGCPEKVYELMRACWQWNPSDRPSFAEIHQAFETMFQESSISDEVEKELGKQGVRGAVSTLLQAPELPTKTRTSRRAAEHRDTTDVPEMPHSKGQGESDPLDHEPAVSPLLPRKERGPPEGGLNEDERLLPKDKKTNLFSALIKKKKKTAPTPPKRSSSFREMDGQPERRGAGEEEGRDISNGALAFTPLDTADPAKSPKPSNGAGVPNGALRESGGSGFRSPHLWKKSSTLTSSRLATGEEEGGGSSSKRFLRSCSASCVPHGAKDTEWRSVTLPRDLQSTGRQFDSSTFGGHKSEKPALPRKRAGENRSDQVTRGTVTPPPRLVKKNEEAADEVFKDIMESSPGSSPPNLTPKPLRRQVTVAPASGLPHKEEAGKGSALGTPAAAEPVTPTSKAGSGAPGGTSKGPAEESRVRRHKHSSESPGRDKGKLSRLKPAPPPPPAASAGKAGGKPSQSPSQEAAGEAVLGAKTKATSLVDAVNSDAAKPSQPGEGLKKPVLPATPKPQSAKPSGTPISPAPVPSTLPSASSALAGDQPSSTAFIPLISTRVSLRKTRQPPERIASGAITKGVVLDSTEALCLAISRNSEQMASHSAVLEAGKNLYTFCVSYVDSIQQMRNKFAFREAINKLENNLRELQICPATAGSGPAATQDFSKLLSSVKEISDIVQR
Source text: as §1

MLK3/MAP3K11 = MLK3/MAP3K11 (Homo sapiens, UniProt Q16584); test: Kinase selectivity panel, MLK3/MAP3K11; conditions: for fold selectivity MAP4K4 over MLK3/MAP3K11: in favour of MAP4K4; for IC50: read-out: pIC50 MLK3/MAP3K11 (converted)
Sequence of MLK3/MAP3K11 (Q16584 whole entry): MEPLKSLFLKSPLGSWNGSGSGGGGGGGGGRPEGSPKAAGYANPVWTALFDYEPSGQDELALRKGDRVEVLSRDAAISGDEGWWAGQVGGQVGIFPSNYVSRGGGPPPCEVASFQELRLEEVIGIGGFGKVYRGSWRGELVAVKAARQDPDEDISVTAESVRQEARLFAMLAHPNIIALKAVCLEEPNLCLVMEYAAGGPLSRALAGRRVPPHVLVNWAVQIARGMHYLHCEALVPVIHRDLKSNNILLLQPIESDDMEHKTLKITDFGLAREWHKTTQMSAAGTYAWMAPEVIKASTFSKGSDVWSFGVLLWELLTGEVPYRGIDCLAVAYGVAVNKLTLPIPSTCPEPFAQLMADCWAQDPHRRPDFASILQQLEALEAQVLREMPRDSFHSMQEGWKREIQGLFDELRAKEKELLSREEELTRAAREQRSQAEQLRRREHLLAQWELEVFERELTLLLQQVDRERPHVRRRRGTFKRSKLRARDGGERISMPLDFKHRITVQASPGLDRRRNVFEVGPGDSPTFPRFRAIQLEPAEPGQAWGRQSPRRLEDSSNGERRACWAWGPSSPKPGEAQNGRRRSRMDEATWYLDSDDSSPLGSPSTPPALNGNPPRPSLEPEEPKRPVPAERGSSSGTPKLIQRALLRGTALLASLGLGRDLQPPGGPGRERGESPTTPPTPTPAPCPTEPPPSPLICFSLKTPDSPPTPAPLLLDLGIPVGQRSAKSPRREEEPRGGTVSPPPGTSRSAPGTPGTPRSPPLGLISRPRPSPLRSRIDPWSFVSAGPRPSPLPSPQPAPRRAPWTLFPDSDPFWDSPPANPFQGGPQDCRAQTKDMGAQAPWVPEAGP
Source text: as §1

NUAK1 = target: T4, NUAK1 (Homo sapiens, UniProt O60285); test: Kinase selectivity panel, NUAK1; conditions: for fold selectivity MAP4K4 over NUAK1: in favour of MAP4K4; for IC50: read-out: pIC50 NUAK1 (converted)
T4 sequence (O60285 1-661): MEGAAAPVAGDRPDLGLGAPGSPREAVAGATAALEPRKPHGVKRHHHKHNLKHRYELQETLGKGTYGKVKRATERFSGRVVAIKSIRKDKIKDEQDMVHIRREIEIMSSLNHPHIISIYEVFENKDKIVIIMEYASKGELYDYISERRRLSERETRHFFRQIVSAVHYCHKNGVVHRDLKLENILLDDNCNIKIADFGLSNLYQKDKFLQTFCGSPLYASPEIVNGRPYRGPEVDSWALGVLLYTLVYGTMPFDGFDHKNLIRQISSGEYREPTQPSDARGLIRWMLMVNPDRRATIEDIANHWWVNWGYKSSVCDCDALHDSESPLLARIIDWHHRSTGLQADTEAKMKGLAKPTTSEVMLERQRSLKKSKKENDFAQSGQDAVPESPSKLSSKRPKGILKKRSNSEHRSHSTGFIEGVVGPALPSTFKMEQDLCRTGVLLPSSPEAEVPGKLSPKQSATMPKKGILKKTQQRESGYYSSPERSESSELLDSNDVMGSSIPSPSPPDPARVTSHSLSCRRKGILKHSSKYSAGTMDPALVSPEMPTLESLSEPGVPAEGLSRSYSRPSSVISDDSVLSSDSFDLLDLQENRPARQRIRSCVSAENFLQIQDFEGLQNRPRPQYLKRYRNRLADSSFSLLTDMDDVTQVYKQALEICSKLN
Source text: as §1

MINK1/MAP4K6 = MINK1/MAP4K6 (Homo sapiens, UniProt Q8N4C8); test: Kinase selectivity panel, MINK1/MAP4K6; conditions: read-out: pIC50 MINK1/MAP4K6 (converted)
Source text: as §1

MLK1/MAP3K9 = MLK1/MAP3K9 (Homo sapiens, UniProt P80192); test: Kinase selectivity panel, MLK1/MAP3K9; conditions: for fold selectivity MAP4K4 over MLK1/MAP3K9: in favour of MAP4K4; for IC50: read-out: pIC50 MLK1/MAP3K9 (converted)
Sequence of MLK1/MAP3K9 (P80192 whole entry): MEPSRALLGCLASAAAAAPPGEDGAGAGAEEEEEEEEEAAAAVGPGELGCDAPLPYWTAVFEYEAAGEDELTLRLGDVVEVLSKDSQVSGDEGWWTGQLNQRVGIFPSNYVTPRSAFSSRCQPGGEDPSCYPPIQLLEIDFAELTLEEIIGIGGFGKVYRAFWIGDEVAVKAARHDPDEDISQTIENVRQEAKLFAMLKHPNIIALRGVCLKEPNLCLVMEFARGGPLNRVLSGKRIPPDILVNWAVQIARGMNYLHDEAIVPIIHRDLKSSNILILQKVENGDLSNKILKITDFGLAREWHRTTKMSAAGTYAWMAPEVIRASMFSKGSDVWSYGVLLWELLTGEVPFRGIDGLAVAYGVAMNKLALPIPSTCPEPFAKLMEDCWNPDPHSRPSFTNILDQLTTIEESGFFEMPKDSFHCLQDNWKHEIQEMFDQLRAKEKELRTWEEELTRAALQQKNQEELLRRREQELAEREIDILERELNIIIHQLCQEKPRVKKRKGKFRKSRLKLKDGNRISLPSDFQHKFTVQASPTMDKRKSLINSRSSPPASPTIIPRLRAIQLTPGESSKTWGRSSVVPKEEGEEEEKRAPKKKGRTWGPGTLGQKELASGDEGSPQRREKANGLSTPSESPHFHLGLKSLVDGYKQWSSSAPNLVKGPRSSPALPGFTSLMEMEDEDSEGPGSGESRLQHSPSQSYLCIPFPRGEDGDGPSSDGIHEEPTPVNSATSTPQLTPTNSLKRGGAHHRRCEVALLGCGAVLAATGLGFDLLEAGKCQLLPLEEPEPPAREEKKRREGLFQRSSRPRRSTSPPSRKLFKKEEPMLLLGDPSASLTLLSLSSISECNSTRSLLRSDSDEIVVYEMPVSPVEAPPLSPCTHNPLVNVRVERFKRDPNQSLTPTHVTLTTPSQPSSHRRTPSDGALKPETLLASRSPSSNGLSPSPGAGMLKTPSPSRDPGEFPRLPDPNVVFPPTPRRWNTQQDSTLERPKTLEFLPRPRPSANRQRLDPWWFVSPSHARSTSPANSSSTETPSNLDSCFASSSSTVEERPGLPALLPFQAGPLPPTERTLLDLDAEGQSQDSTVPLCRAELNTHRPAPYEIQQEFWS
Source text: as §1

Aurora B = Aurora B (Homo sapiens, UniProt Q96GD4); test: Kinase selectivity panel, Aurora B
Sequence of Aurora B (Q96GD4 whole entry): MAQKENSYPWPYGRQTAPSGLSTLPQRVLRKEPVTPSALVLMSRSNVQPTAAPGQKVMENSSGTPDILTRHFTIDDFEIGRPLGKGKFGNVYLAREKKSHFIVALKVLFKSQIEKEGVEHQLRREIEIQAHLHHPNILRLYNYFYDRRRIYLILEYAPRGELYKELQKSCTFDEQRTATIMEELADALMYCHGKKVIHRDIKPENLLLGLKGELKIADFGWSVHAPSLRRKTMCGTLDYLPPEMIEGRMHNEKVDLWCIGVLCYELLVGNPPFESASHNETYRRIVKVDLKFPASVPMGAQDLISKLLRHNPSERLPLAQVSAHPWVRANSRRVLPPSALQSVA
Source text: as §1

[2] = IC50 category, ATP at Km (10 μM), 0.5 nM kinase domain, 2 h, read-out: MAP4K4
[3] = read-out: pIC50 MAP4K4 (converted)

T1 sequence (O95819 25-289 limits assumed): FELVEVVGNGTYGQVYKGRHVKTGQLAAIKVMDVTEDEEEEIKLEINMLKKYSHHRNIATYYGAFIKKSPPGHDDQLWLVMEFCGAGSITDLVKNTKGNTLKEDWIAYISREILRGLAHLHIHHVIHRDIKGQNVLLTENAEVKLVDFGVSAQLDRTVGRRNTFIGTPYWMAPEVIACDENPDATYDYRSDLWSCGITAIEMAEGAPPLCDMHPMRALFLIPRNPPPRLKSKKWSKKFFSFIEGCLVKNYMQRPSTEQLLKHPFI

Structure (SMILES) | IC50 [1, 2] | IC50 [1, 3] | IC50 (TNIK/MAP4K7) | fold selectivity MAP4K4 over GCK/MAP4K2 (GCK/MAP4K2) | IC50 (GCK/MAP4K2) | fold selectivity MAP4K4 over GLK/MAP4K3 (GLK/MAP4K3) | IC50 (GLK/MAP4K3) | fold selectivity MAP4K4 over KHS/MAP4K5 (KHS/MAP4K5) | IC50 (KHS/MAP4K5) | fold selectivity MAP4K4 over ABL1 (ABL1) | IC50 (ABL1) | fold selectivity MAP4K4 over MLK3/MAP3K11 (MLK3/MAP3K11) | IC50 (MLK3/MAP3K11) | fold selectivity MAP4K4 over NUAK1 (NUAK1) | IC50 (NUAK1) | IC50 (MINK1/MAP4K6) | fold selectivity MAP4K4 over MLK1/MAP3K9 (MLK1/MAP3K9) | IC50 (MLK1/MAP3K9) | fold selectivity MAP4K4 over Aurora B (Aurora B; in favour of MAP4K4) | IC50 (Aurora B; read-out: pIC50 Aurora B (converted))
COCCOc1ccc(-c2cn(-c3cccnc3)c3nc[nH]c(=O)c23)cc1 [Ex-67] | ≤ 100 nM | 25.1 nM | 200 nM | (79) fold | 2000 nM | (1000) fold | 25100 nM | (63) fold | 1580 nM | (>1000) fold | 31600 nM | (63) fold | 1580 nM | (50) fold | 1260 nM |  |  |  |  | 
O=c1[nH]cnc2c1c(-c1ccc(OCC(O)CN3CCOCC3)cc1)cn2-c1cccnc1 (stereo not drawn) [Ex-54] | ≤ 100 nM | 31.6 nM | 50.1 nM | (5) fold | 158 nM | (50) fold | 1580 nM | (6) fold | 200 nM | (126) fold | 3980 nM | (13) fold | 398 nM | (4) fold | 126 nM | 31.6 nM | (100) fold | 3160 nM |  | 
O=c1[nH]cnc2c1c(-c1cnn(CCO)c1)cn2-c1ccccc1 [Ex-27] | ≤ 100 nM | 15.8 nM | 20 nM | (31) fold | 501 nM |  |  |  |  |  |  | (5) fold | 79.4 nM | (13) fold | 200 nM | 10 nM | (5) fold | 79.4 nM |  | 
COCCOc1ccc(-c2cn(-c3ccncc3)c3nc[nH]c(=O)c23)cc1 [Ex-28] | ≤ 100 nM | 12.6 nM | 50.1 nM | (79) fold | 1000 nM |  |  | (63) fold | 794 nM | (501) fold | 6310 nM | (79) fold | 1000 nM | (251) fold | 3160 nM | 31.6 nM | (398) fold | 5010 nM | (501) fold | 6310 nM
O=c1[nH]cnc2c1c(-c1cnn(C3COC3)c1)cn2-c1ccccc1 [Ex-26] | ≤ 100 nM | 31.6 nM | 316 nM | (16) fold | 501 nM |  |  |  |  |  |  | (1) fold | 31.6 nM | (3) fold | 100 nM | 63.1 nM | (8) fold | 126 nM |  | 
